Columns and labels:
HL-60 = assay: Anticancer activity against human HL-60 cells assessed as growth inhibition incubated for 48 hrs by SRB assay; type: functional
K562 = assay: Anticancer activity against human K562 cells assessed as growth inhibition incubated for 48 hrs by SRB assay; type: functional
MOLT-4 = assay: Anticancer activity against human MOLT-4 cells assessed as growth inhibition incubated for 48 hrs by SRB assay; type: functional
HOP-62 [1] = assay: Anticancer activity against human HOP-62 cells assessed as growth inhibition incubated for 48 hrs by SRB assay; type: functional
NCI-H460 = assay: Anticancer activity against human NCI-H460 cells assessed as growth inhibition incubated for 48 hrs by SRB assay; type: functional
SF-295 [2] = assay: Anticancer activity against human SF-295 cells assessed as growth inhibition incubated for 48 hrs by SRB assay; type: functional
M14 [3] = assay: Anticancer activity against human M14 cells assessed as growth inhibition incubated for 48 hrs by SRB assay; type: functional
SK-MEL-2 = assay: Anticancer activity against human SK-MEL-2 cells assessed as growth inhibition incubated for 48 hrs by SRB assay; type: functional
SK-MEL-5 = assay: Anticancer activity against human SK-MEL-5 cells assessed as growth inhibition incubated for 48 hrs by SRB assay; type: functional
UACC-257 = assay: Anticancer activity against human UACC-257 cells assessed as growth inhibition incubated for 48 hrs by SRB assay; type: functional
UACC-62 [4] = assay: Anticancer activity against human UACC-62 cells assessed as growth inhibition incubated for 48 hrs by SRB assay; type: functional
IGROV-1 [5] = assay: Anticancer activity against human IGROV-1 cells assessed as growth inhibition incubated for 48 hrs by SRB assay; type: functional
SK-OV-3 = assay: Anticancer activity against human SK-OV-3 cells assessed as growth inhibition incubated for 48 hrs by SRB assay; type: functional
ACHN = assay: Anticancer activity against human ACHN cells assessed as growth inhibition incubated for 48 hrs by SRB assay; type: functional
MCF7 [6] = assay: Anticancer activity against human MCF7 cells assessed as growth inhibition incubated for 48 hrs by SRB assay; type: functional
Hs-578T = assay: Anticancer activity against human Hs-578T cells assessed as growth inhibition incubated for 48 hrs by SRB assay; type: functional
[7] = Selectivity index, ratio of GI50 for human HaCaT cells to GI50 for human U-251 cells; type: toxicity; conditions: HaCaT cells versus U-251 cells, read-out: RatioGI50
RPMI-8226 = assay: Anticancer activity against human RPMI-8226 cells assessed as total growth inhibition incubated for 48 hrs by SRB assay; type: functional
EKVX = assay: Anticancer activity against human EKVX cells assessed as total growth inhibition incubated for 48 hrs by SRB assay; type: functional
HOP-62 [8] = assay: Anticancer activity against human HOP-62 cells assessed as total growth inhibition incubated for 48 hrs by SRB assay; type: functional
NCI-H226 = assay: Anticancer activity against human NCI-H226 cells assessed as total growth inhibition incubated for 48 hrs by SRB assay; type: functional
NCI-H23 = assay: Anticancer activity against human NCI-H23 cells assessed as total growth inhibition incubated for 48 hrs by SRB assay; type: functional
SF-268 [9] = assay: Anticancer activity against human SF-268 cells assessed as total growth inhibition incubated for 48 hrs by SRB assay; type: functional
SF-295 [10] = assay: Anticancer activity against human SF-295 cells assessed as total growth inhibition incubated for 48 hrs by SRB assay; type: functional
U-251 [11] = assay: Anticancer activity against human U-251 cells assessed as total growth inhibition incubated for 48 hrs by SRB assay; type: functional
SK-MEL-28 = assay: Anticancer activity against human SK-MEL-28 cells assessed as total growth inhibition incubated for 48 hrs by SRB assay; type: functional
UACC-62 [12] = assay: Anticancer activity against human UACC-62 cells assessed as total growth inhibition incubated for 48 hrs by SRB assay; type: functional
IGROV-1 [13] = assay: Anticancer activity against human IGROV-1 cells assessed as total growth inhibition incubated for 48 hrs by SRB assay; type: functional
OVCAR-4 = assay: Anticancer activity against human OVCAR-4 cells assessed as total growth inhibition incubated for 48 hrs by SRB assay; type: functional
OVCAR-8 = assay: Anticancer activity against human OVCAR-8 cells assessed as total growth inhibition incubated for 48 hrs by SRB assay; type: functional
NCI/ADR-RES = assay: Anticancer activity against human NCI/ADR-RES cells assessed as total growth inhibition incubated for 48 hrs by SRB assay; type: functional
UO-31 = assay: Anticancer activity against human UO-31 cells assessed as total growth inhibition incubated for 48 hrs by SRB assay; type: functional
MDA-MB-231 = assay: Anticancer activity against human MDA-MB-231 cells assessed as total growth inhibition incubated for 48 hrs by SRB assay; type: functional
T47D = assay: Anticancer activity against human T47D cells assessed as total growth inhibition incubated for 48 hrs by SRB assay; type: functional
HCT-15 = assay: Anticancer activity against human HCT-15 cells assessed as lethality incubated for 48 hrs by SRB assay; type: functional; conditions: read-out: LC50 (the source's name)
HT-29 = assay: Anticancer activity against human HT-29 cells assessed as lethality incubated for 48 hrs by SRB assay; type: functional; conditions: read-out: LC50 (the source's name)
SF-268 [14] = assay: Anticancer activity against human SF-268 cells assessed as lethality incubated for 48 hrs by SRB assay; type: functional; conditions: read-out: LC50 (the source's name)
U-251 [15] = assay: Anticancer activity against human U-251 cells assessed as lethality incubated for 48 hrs by SRB assay; type: functional; conditions: read-out: LC50 (the source's name)
M14 [16] = assay: Anticancer activity against human M14 cells assessed as lethality incubated for 48 hrs by SRB assay; type: functional; conditions: read-out: LC50 (the source's name)
MCF7 [17] = assay: Anticancer activity against human MCF7 cells assessed as lethality incubated for 48 hrs by SRB assay; type: functional; conditions: read-out: LC50 (the source's name)
BT-549 = assay: Anticancer activity against human BT-549 cells assessed as lethality incubated for 48 hrs by SRB assay; type: functional; conditions: read-out: LC50 (the source's name)
MDA-MB-468 = assay: Anticancer activity against human MDA-MB-468 cells assessed as lethality incubated for 48 hrs by SRB assay; type: functional; conditions: read-out: LC50 (the source's name)
Jurkat = assay: Anticancer activity against human Jurkat cells assessed as cell growth inhibition incubated for 72 hrs by MTT assay; type: functional
KB 3-1 = assay: Anticancer activity against human KB 3-1 cells assessed as cell growth inhibition incubated for 72 hrs by MTT assay; type: functional
HeLa = assay: Anticancer activity against human HeLa cells assessed as cell growth inhibition incubated for 72 hrs by MTT assay; type: functional
U-251 [18] = assay: Anticancer activity against human U-251 cells assessed as cell growth inhibition incubated for 72 hrs by MTT assay; type: functional
[19] = Selectivity index, ratio of GI50 for human HaCaT cells to GI50 for human SK-OV-3 cells; type: toxicity; conditions: HaCaT cells versus SK-OV-3 cells, read-out: RatioGI50
[20] = Cytotoxicity against mitogen activated human peripheral blood lymphocytes assessed as cell growth inhibition incubated for 48 hrs by MTT assay; type: toxicity, cell-based, Lymphocyte
LOX IMVI = assay: Anticancer activity against human LOX IMVI cells assessed as inhibition of cell growth at 10 uM incubated for 48 hrs by SRB assay; values are per cent of control

SMILES: O=C1CC(N2C(=O)/C(=C/C(Cl)=C/c3ccc([N+](=O)[O-])cc3)SC2=S)C(=O)N1c1ccc(Cl)cc1 (centres undefined)
- GI50 (HL-60): 1.45 µM
- GI50 (K562): 0.692 µM
- GI50 (MOLT-4): 0.596 µM
- GI50 (HOP-62 [1]): 1.73 µM
- GI50 (NCI-H460): 3.3 µM
- GI50 (SF-295 [2]): 1.4 µM
- GI50 (M14 [3]): 2.11 µM
- GI50 (SK-MEL-2): 3.12 µM
- GI50 (SK-MEL-5): 1.95 µM
- GI50 (UACC-257): 2.92 µM
- GI50 (UACC-62 [4]): 1.77 µM
- GI50 (IGROV-1 [5]): 1.03 µM
- GI50 (SK-OV-3): 3.56 µM
- GI50 (ACHN): 1.34 µM
- GI50 (MCF7 [6]): 1.38 µM
- GI50 (Hs-578T): 1.8 µM
- selectivity ratio [7]: 11.2
- TGI (RPMI-8226): 0.979 µM
- TGI (EKVX): > 100 µM
- TGI (HOP-62 [8]): 5.5 µM
- TGI (NCI-H226): 4.65 µM
- TGI (NCI-H23): 4.31 µM
- TGI (SF-268 [9]): > 100 µM
- TGI (SF-295 [10]): 3.24 µM
- TGI (U-251 [11]): 2.47 µM
- TGI (SK-MEL-28): 4.02 µM
- TGI (UACC-62 [12]): 4.3 µM
- TGI (IGROV-1 [13]): 3.26 µM
- TGI (OVCAR-4): > 100 µM
- TGI (OVCAR-8): > 100 µM
- TGI (NCI/ADR-RES): 6.19 µM
- TGI (UO-31): 3.3 µM
- TGI (MDA-MB-231): 47.8 µM
- TGI (T47D): 6.34 µM
- CC50 (HCT-15): 77.4 µM
- CC50 (HT-29): > 100 µM
- CC50 (SF-268 [14]): > 100 µM
- CC50 (U-251 [15]): 14.1 µM
- CC50 (M14 [16]): > 100 µM
- CC50 (MCF7 [17]): > 100 µM
- CC50 (BT-549): 8 µM
- CC50 (MDA-MB-468): 7.22 µM
- GI50 (Jurkat): 3.4 µM
- GI50 (KB 3-1): 70.3 µM
- GI50 (HeLa): 6.65 µM
- GI50 (U-251 [18]): 8.93 µM
- selectivity ratio [19]: 1.52
- GI50 at 48 h [20]: 28.9 µM
- growth percent at 10 µM (LOX IMVI): -71.7%
